Data: publication PMC6290777, “Inhalation of the prodrug PI3K inhibitor CL27c improves lung function in asthma and fibrosis” (Nature Communications, 2018)

Columns and labels:
[1] = test system: PBMCs; assay: PBMCs proliferation (MTT); type: cell-based, human
Experimental: PBMCs in RPMI medium were seeded in a 96-well tissue culture plates at 5 × 10^3 cells/well (Cell Star, Frickenhausen, Germany). PBMCs were activated with vehicle (PBS) or anti-CD3 (5 μg/mL) plus soluble anti-CD28 (2 μg/mL) mAbs (BD Pharmingen, San Jose, CA, USA). Then, the cells were incubated at 37 °C and 5% CO2 for 48 h. Cell proliferation was assayed by MTT (3-(4,5-dimethylthiazol-2-yl)-2,5-diphenyltetrazolium bromide) assay (Roche Life Science, Mannheim, BW, Germany) following the manufacturer’s instructions. Briefly, 10 μL of MTT (3 mg/mL) was added to each well containing cells in 100 μL medium and incubated for 2 h at 37 °C. Then, 100 μL of lysis buffer was added allowing the dissolution of formazan crystals. After 15 min at room temperature the absorbance was read at 560 nm with reference of 690 nm using GloMax®-Multi Microplate Multimode Reader (Promega, Madison, Wisconsin, EUA).

[2] = test system: glucocorticoid-resistant neutrophilic asthma; assay: Glucocorticoid-resistant asthma model; type: in vivo, BALB/c mice; conditions: CL27c 2 mg/ml aerosol
Experimental: BALF was performed to obtain leukocytes from alveolar space. The trachea was exposed and a 1.7-mm-outside-diameter polyethylene catheter was inserted. BAL was performed by washing the lungs three-times with three different 500 µl aliquots of PBS. BALF samples were centrifuged at 600 × g for 10 min at 4 °C on a histology glass slide and stained with Diff Quick (MICROPTIC, #DQ-ST). The number of leukocytes and differential counts of different population were obtained evaluating the percentage leukocyte populations over the total cell number.
Mice were anesthetized with a subcutaneous injection of ketamine and xylazine (130 mg/Kg ketamine and 8.5 mg/Kg xylazine) to maintain spontaneous breathing under anesthesia. Mice were tracheostomized, placed in a body plethysmograph and connected to a computer-controlled ventilator (Forced Pulmonary Maneuver System®, Buxco Research Systems©, Wilmington, North Carolina USA). First, an average breathing frequency of 160 breaths/min was imposed to the anesthetized animal by a pressure-controlled ventilation until a regular breathing pattern and complete expiration at each breathing cycle was obtained. Under mechanical respiration, respiratory flow and airway pressure were measured to compute dynamic compliance (Cdyn) and lung resistance (RL). To measure the TLC, pressure–volume maneuvers were performed, where lungs were inflated to a standard pressure of +30 cm H2O and then let slowly exhale until a negative pressure of −30 cm H2O was reached. To measure the FEV Fast-Flow Volume maneuvers was performed. In this maneuver, lungs were first inflated to +30 cm H2O (TLC) and, immediately, a negative pressure (−30 cm H2O) was applied in order to enforce expiration. To evaluate AHR, the same mice used in previous maneuvers (basal condition) received Metacholine, 1 mg/Kg (Acetyl-β-methylcholine chloride, A-2251, Sigma-Aldrich St.Louis, MO,USA) i.v., and 20 sec after, a new set of maneuvers were conducted to assess RL changes. Suboptimal maneuvers were rejected and for each test in every single mouse at least three acceptable maneuvers were conducted to obtain a reliable mean for all numeric parameters.
IL-5, IL-13, eotaxin, TGF-β, KC, IL-17A, and MCP-1 levels in the BALF and anti-OVA IgE levels in serum were measured by ELISA technique using commercial DuoSet kits R&D Systems according to the instructions of the manufacturer. Results were expressed in levels of cytokines per ml of […] (pg/ml) or arbitrary units (A.U.).
On day 1 BALB/c mice received systemic immunization by subcutaneous injection of 20 µg of chicken egg ovalbumin (OVA grade V, >98% pure; Sigma, St Louis, MO) in saline, emulsified in 75 µL CFA (Complete Freund’s Adjuvant; Sigma-Aldrich) (Figure 5)[52]. On days 25–28 mice were exposed to aerosolised ovalbumin (1% in saline) for 20 min per day. Mice were exposed during 30 min to aerosolized CL27c (2 mg/ml dissolved in 0.5 % tylaxopol/saline solution) or vehicle (0.5% tyloxapol/saline solution), or to systemic treatment with dexamethasone (5 mg/kg i.p. injection). Untreated control groups included mice challenged with PBS alone. On day 29, mice were sacrificed, and samples were collected for further analysis.
The left lung was removed and fixed in 4% neutral phosphate-buffered formalin (pH 7.4)[10]. The tissues were dehydrated gradually in ethanol, embedded in paraffin, cut into 4 µm sections, stained with H&E, Gomori’s trichrome and periodic acid schiff (PAS), and examined under light microscopy by a pathologist in a double blinded manner. Images of lung sections were captured with a digital camera (Optronics DEI-470) connected to a microscope (Olympus IX70) with a magnification of ×40 or ×100. Inflammation was scored according to modification of existing protocols[53] and to the histopathology criteria reported in Supplementary Table 4.

COC(=O)c1cccc(Cn2cc(-c3cccc4c(=O)cc(N5CCOCC5)[nH]c34)nn2)c1 [CL27c]
anti-proliferative effect on PBMC relative to dexamethasone ([1]; CL27c 5 μM): comparable to the reference compound dexamethasone
proliferation of PBMC ([1]; stimulated with antibodies against CD28, CL27c 0.5 and 5 µM, concentration-dependent): block proliferation
abundance of cytokines (MCP-1, IL-17A, KC, Eotaxin, IFN-γ) [2]: could not block systemic production of these mediators
airway hyperreactivity and lung resistance ([2]; dexamethasone 5 mg/kg i.p.): without modifying either airway hyperreactivity or lung resistance
histopathology: overall score of lung damage / tissue inflammation ([2]; dexamethasone 5 mg/kg i.p.): significantly reduce the overall score of lung damage
lung compliance (Cdyn) ([2]; dexamethasone 5 mg/kg i.p.): restored normal lung compliance
number of inflammatory cells in BALF ([2]; dexamethasone 5 mg/kg i.p.): reduce the number of inflammatory cells in BALF
